{"source": "ChEMBL document CHEMBL5678810", "key": {"[1]": {"target": "Tyrosine-protein kinase ABL1 (Homo sapiens) (UniProt P00519)", "assay": "Inhibition of T7 bacteriophage fused human nonphosphorylated ABL1 at 10 uM by KINOMEscan analysis relative to control"}, "[2]": {"target": "Activin receptor type-2B (Homo sapiens) (UniProt Q13705)", "assay": "Inhibition of T7 bacteriophage fused human ACVR2B at 10 uM by KINOMEscan analysis relative to control"}, "[3]": {"target": "Bone morphogenetic protein receptor type-1B (Homo sapiens) (UniProt O00238)", "assay": "Inhibition of T7 bacteriophage fused human BMPR1B at 10 uM by KINOMEscan analysis relative to control"}, "[4]": {"target": "Cyclin-dependent kinase 3 (Homo sapiens) (UniProt Q00526)", "assay": "Inhibition of T7 bacteriophage fused human CDK3 at 10 uM by KINOMEscan analysis relative to control"}, "[5]": {"target": "Casein kinase I isoform alpha (Homo sapiens) (UniProt P48729)", "assay": "Inhibition of T7 bacteriophage fused human CSNK1A1 at 10 uM by KINOMEscan analysis relative to control"}, "[6]": {"target": "Casein kinase I isoform epsilon (Homo sapiens) (UniProt P49674)", "sequence (P49674 whole entry, looked up, the tested form may be a part, canonical isoform)": "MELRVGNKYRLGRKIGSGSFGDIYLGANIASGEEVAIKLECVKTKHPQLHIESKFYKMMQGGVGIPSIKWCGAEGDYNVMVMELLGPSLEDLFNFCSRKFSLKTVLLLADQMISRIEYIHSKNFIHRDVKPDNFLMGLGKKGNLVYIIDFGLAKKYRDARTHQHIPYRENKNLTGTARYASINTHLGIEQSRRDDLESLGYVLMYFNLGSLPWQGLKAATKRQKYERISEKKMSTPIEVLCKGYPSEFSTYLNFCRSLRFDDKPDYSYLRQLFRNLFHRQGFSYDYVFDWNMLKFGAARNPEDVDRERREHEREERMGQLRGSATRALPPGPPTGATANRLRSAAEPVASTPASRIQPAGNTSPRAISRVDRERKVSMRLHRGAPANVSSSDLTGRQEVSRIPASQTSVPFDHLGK", "assay": "Inhibition of T7 bacteriophage fused human CSNK1E at 10 uM by KINOMEscan analysis relative to control"}, "[7]": {"system": "Fibroblast growth factor receptor 3 (Homo sapiens), P22607 [G697C]", "assay": "Inhibition of T7 bacteriophage fused human FGFR3 G697C mutant at 10 uM by KINOMEscan analysis relative to control"}, "[8]": {"target": "Interleukin-1 receptor-associated kinase 1 (Homo sapiens) (UniProt P51617)", "assay": "Inhibition of T7 bacteriophage fused human IRAK1 at 10 uM by KINOMEscan analysis relative to control"}, "[9]": {"system": "Mast/stem cell growth factor receptor Kit (Homo sapiens), P10721 [D816H]", "sequence (P10721 whole entry D816H, the tested form may be a part)": "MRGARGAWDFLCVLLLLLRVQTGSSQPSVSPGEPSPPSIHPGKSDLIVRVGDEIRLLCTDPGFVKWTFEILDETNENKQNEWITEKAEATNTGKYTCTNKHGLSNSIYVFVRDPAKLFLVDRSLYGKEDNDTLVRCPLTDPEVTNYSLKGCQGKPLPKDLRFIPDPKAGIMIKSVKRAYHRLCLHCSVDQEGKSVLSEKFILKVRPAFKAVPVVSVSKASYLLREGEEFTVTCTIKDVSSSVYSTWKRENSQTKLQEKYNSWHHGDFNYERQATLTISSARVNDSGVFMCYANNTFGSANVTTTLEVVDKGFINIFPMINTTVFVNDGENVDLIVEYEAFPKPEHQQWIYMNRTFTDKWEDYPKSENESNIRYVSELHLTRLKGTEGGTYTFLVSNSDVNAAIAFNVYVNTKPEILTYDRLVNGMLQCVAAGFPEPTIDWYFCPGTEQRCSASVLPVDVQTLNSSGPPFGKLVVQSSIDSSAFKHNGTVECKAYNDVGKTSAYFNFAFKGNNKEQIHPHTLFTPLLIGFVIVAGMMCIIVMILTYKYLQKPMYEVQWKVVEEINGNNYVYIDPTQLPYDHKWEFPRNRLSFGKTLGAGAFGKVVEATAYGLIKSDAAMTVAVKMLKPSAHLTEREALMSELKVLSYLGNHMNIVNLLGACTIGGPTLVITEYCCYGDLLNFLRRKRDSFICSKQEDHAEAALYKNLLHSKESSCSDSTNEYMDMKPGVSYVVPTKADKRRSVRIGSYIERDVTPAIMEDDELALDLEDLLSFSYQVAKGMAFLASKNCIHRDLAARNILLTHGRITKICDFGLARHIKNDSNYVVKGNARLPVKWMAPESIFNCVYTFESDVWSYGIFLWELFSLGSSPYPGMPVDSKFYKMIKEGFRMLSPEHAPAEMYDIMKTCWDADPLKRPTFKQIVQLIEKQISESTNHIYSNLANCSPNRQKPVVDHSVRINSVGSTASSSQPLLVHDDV", "assay": "Inhibition of T7 bacteriophage fused human KIT D816H mutant at 10 uM by KINOMEscan analysis relative to control"}, "[10]": {"target": "MAP kinase-activated protein kinase 2 (Homo sapiens) (UniProt P49137)", "sequence (P49137 whole entry, looked up, the tested form may be a part)": "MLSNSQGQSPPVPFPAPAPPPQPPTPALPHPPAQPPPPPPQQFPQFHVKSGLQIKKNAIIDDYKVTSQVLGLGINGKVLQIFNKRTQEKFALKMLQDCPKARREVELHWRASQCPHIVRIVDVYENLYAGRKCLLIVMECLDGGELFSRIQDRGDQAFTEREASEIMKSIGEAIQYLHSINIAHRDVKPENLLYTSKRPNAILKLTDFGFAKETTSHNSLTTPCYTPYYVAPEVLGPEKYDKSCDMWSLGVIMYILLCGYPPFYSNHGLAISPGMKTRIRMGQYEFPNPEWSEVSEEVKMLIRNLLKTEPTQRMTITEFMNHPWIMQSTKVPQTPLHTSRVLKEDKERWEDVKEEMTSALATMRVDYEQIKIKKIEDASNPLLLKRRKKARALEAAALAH", "assay": "Inhibition of T7 bacteriophage fused human MAPKAPK2 at 10 uM by KINOMEscan analysis relative to control"}, "[11]": {"target": "Dual specificity mitogen-activated protein kinase kinase 7 (Homo sapiens) (UniProt O14733)", "sequence (O14733 whole entry, the tested form may be a part)": "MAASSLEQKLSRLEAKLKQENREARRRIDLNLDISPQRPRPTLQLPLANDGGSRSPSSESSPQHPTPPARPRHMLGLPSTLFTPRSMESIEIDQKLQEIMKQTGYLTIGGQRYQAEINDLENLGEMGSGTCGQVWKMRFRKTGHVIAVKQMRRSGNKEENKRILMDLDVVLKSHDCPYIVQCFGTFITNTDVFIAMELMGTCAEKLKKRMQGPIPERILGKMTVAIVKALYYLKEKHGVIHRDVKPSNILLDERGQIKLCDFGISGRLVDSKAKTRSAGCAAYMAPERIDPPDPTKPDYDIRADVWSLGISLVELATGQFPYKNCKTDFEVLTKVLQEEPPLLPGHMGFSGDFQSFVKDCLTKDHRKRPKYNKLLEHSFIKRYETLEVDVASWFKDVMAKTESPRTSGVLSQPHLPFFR", "assay": "Inhibition of T7 bacteriophage fused human MKK7 at 10 uM by KINOMEscan analysis relative to control"}, "[12]": {"target": "Serine/threonine-protein kinase Nek6 (Homo sapiens) (UniProt Q9HC98)", "assay": "Inhibition of T7 bacteriophage fused human NEK6 at 10 uM by KINOMEscan analysis relative to control"}, "[13]": {"target": "Serine/threonine-protein kinase Nek9 (Homo sapiens) (UniProt Q8TD19)", "assay": "Inhibition of T7 bacteriophage fused human NEK9 at 10 uM by KINOMEscan analysis relative to control"}, "[14]": {"target": "Serine/threonine-protein kinase PAK 4 (Homo sapiens) (UniProt O96013)", "assay": "Inhibition of T7 bacteriophage fused human PAK4 at 10 uM by KINOMEscan analysis relative to control"}, "[15]": {"target": "Phosphorylase b kinase gamma catalytic chain, liver/testis isoform (Homo sapiens) (UniProt P15735)", "sequence (P15735 whole entry, the tested form may be a part, canonical isoform)": "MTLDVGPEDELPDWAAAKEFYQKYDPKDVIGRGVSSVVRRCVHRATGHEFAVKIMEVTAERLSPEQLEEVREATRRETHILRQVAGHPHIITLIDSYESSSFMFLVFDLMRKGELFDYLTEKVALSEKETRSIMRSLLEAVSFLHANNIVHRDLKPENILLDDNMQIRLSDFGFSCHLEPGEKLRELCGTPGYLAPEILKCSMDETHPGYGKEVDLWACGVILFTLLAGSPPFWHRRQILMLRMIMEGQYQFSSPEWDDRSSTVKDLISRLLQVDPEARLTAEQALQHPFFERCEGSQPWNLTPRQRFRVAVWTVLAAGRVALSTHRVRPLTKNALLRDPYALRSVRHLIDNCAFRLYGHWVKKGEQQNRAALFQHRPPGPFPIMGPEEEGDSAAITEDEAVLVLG", "assay": "Inhibition of T7 bacteriophage fused human PHKG2 at 10 uM by KINOMEscan analysis relative to control"}, "[16]": {"target": "Phosphatidylinositol 4,5-bisphosphate 3-kinase catalytic subunit alpha isoform (Homo sapiens) (UniProt P42336)", "sequence (P42336 whole entry, the tested form may be a part, canonical isoform)": "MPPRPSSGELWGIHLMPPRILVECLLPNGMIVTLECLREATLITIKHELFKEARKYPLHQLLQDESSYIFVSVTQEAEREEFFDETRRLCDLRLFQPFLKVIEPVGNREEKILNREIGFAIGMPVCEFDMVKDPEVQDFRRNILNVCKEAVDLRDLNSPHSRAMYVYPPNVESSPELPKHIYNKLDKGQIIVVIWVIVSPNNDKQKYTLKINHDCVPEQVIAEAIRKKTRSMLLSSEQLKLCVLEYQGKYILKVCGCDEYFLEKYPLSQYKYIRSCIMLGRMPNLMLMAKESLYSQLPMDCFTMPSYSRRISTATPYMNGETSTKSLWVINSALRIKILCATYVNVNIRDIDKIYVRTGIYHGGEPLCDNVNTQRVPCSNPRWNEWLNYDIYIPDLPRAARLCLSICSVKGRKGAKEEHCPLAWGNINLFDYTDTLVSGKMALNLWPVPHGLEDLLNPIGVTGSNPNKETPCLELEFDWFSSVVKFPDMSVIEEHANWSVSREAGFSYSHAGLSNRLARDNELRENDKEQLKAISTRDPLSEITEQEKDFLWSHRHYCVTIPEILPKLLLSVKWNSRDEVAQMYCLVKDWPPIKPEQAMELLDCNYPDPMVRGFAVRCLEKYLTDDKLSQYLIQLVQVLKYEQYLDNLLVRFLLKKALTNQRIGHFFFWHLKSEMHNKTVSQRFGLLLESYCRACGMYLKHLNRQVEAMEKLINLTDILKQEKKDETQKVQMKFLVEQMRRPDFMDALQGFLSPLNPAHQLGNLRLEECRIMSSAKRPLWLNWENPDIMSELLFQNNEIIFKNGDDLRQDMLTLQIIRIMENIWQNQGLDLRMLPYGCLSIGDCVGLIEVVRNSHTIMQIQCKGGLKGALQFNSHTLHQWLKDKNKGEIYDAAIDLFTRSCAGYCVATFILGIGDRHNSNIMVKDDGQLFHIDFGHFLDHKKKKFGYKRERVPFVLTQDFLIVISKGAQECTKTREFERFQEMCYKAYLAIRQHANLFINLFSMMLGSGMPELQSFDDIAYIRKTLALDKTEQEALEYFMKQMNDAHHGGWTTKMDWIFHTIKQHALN", "assay": "Inhibition of T7 bacteriophage fused human PIK3CA at 10 uM by KINOMEscan analysis relative to control"}, "[17]": {"system": "Phosphatidylinositol 4,5-bisphosphate 3-kinase catalytic subunit alpha isoform (Homo sapiens), P42336 [I800L]", "sequence (P42336 whole entry I800L, the tested form may be a part, canonical isoform)": "as the sequence (P42336 whole entry, the tested form may be a part, canonical isoform) above, with I800L counted along it", "assay": "Inhibition of T7 bacteriophage fused human PIK3CA I800L mutant at 10 uM by KINOMEscan analysis relative to control"}, "[18]": {"target": "Receptor-interacting serine/threonine-protein kinase 1 (Homo sapiens) (UniProt Q13546)", "sequence (Q13546 whole entry, the tested form may be a part)": "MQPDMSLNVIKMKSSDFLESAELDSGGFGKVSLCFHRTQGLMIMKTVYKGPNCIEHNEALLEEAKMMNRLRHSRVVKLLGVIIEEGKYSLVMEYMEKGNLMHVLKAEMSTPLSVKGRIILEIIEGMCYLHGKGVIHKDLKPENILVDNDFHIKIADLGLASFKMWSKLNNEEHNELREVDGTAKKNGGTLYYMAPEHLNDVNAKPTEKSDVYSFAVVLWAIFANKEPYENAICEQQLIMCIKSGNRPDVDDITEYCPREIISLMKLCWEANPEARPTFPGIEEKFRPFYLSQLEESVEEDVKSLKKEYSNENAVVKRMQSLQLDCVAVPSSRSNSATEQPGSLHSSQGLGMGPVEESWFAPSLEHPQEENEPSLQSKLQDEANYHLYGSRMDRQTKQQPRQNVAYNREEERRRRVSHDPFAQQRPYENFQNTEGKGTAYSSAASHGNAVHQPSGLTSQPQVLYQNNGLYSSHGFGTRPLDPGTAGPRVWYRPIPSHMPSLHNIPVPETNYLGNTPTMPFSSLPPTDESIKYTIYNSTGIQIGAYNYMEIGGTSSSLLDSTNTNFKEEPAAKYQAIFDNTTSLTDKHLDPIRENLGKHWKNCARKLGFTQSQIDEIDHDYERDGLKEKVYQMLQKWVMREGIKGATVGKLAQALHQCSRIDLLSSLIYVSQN", "assay": "Inhibition of T7 bacteriophage fused human RIPK1 at 10 uM by KINOMEscan analysis relative to control"}, "[19]": {"target": "Ribosomal protein S6 kinase alpha-1 (Homo sapiens) (UniProt Q15418)", "assay": "Inhibition of T7 bacteriophage fused human C-terminal RSK1 Kinase domain-2 at 10 uM by KINOMEscan analysis relative to control"}, "[20]": {"target": "Mitogen-activated protein kinase 8 (Homo sapiens) (UniProt P45983)", "sequence (P45983 whole entry, the tested form may be a part)": "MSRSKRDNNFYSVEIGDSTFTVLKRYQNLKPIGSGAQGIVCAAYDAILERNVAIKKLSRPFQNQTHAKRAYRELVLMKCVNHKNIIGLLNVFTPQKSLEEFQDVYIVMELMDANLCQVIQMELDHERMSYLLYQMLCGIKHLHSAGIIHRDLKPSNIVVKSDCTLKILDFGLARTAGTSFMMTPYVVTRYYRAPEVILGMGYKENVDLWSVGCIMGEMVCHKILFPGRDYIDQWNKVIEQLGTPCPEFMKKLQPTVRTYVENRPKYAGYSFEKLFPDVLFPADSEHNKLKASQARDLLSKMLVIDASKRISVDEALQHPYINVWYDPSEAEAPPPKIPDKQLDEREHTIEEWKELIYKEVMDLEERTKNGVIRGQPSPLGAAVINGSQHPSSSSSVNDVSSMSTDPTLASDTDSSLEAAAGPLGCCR", "assay": "Inhibition of T7 bacteriophage fused human JNK1 at 10 uM by KINOMEscan analysis relative to control; values are per cent of control"}, "[21]": {"target": "Myosin light chain kinase, smooth muscle (Homo sapiens) (UniProt Q15746)", "assay": "Inhibition of T7 bacteriophage fused human MYLK at 10 uM by KINOMEscan analysis relative to control; values are per cent of control"}, "[22]": {"target": "Cyclin-dependent kinase-like 3 (Homo sapiens) (UniProt Q8IVW4)", "assay": "Inhibition of T7 bacteriophage fused human CDKL3 at 10 uM by KINOMEscan analysis relative to control; values are per cent of control"}, "[23]": {"target": "Ephrin type-A receptor 2 (Homo sapiens) (UniProt P29317)", "assay": "Inhibition of T7 bacteriophage fused human EPHA2 at 10 uM by KINOMEscan analysis relative to control; values are per cent of control"}, "[24]": {"target": "Ephrin type-A receptor 5 (Homo sapiens) (UniProt P54756)", "assay": "Inhibition of T7 bacteriophage fused human EPHA5 at 10 uM by KINOMEscan analysis relative to control; values are per cent of control"}, "[25]": {"target": "Fibroblast growth factor receptor 2 (Homo sapiens) (UniProt P21802)", "assay": "Inhibition of T7 bacteriophage fused human FGFR2 at 10 uM by KINOMEscan analysis relative to control; values are per cent of control"}, "[26]": {"target": "Myosin-IIIa (Homo sapiens) (UniProt Q8NEV4)", "assay": "Inhibition of T7 bacteriophage fused human MYO3A at 10 uM by KINOMEscan analysis relative to control; values are per cent of control"}, "[27]": {"target": "Casein kinase I isoform delta (Homo sapiens) (UniProt P48730)", "assay": "Inhibition of T7 bacteriophage fused human CSNK1D at 10 uM by KINOMEscan analysis relative to control; values are per cent of control"}, "[28]": {"target": "Mitogen-activated protein kinase kinase kinase 1 (Homo sapiens) (UniProt Q13233)", "assay": "Inhibition of T7 bacteriophage fused human MAP3K1 at 10 uM by KINOMEscan analysis relative to control; values are per cent of control"}, "[29]": {"system": "Mast/stem cell growth factor receptor Kit (Homo sapiens), P10721 [V559D,T670I]", "sequence (P10721 whole entry V559D/T670I, the tested form may be a part)": "as the sequence (P10721 whole entry D816H, the tested form may be a part) above, with V559D, T670I, H816D counted along it", "assay": "Inhibition of T7 bacteriophage fused human KIT V559D/T670I mutant at 10 uM by KINOMEscan analysis relative to control; values are per cent of control"}}, "data": [{"smiles": "COc1cc(N2CCC(N3CCN(C)CC3)CC2)ccc1Nc1ncc2c(n1)N(C)c1ccccc1C(=O)N2C", "values": [{"measurement": "inhibition", "setting": "[1]", "result": 100, "unit": "%"}, {"measurement": "inhibition", "setting": "[2]", "result": 100, "unit": "%"}, {"measurement": "inhibition", "setting": "[3]", "result": 76, "unit": "%"}, {"measurement": "inhibition", "setting": "[4]", "result": 100, "unit": "%"}, {"measurement": "inhibition", "setting": "[5]", "result": 100, "unit": "%"}, {"measurement": "inhibition", "setting": "[6]", "result": 95, "unit": "%"}, {"measurement": "inhibition", "setting": "[7]", "result": 85, "unit": "%"}, {"measurement": "inhibition", "setting": "[8]", "result": 100, "unit": "%"}, {"measurement": "inhibition", "setting": "[9]", "result": 100, "unit": "%"}, {"measurement": "inhibition", "setting": "[10]", "result": 100, "unit": "%"}, {"measurement": "inhibition", "setting": "[11]", "result": 100, "unit": "%"}, {"measurement": "inhibition", "setting": "[12]", "result": 76, "unit": "%"}, {"measurement": "inhibition", "setting": "[13]", "result": 100, "unit": "%"}, {"measurement": "inhibition", "setting": "[14]", "result": 94, "unit": "%"}, {"measurement": "inhibition", "setting": "[15]", "result": 33, "unit": "%"}, {"measurement": "inhibition", "setting": "[16]", "result": 74, "unit": "%"}, {"measurement": "inhibition", "setting": "[17]", "result": 38, "unit": "%"}, {"measurement": "inhibition", "setting": "[18]", "result": 99, "unit": "%"}, {"measurement": "inhibition", "setting": "[19]", "result": 10, "unit": "%"}, {"measurement": "residual activity", "setting": "[20]", "result": 95, "unit": "%"}, {"measurement": "residual activity", "setting": "[21]", "result": 8.7, "unit": "%"}, {"measurement": "residual activity", "setting": "[22]", "result": 83, "unit": "%"}, {"measurement": "residual activity", "setting": "[23]", "result": 92, "unit": "%"}, {"measurement": "residual activity", "setting": "[24]", "result": 95, "unit": "%"}, {"measurement": "residual activity", "setting": "[25]", "result": 95, "unit": "%"}, {"measurement": "residual activity", "setting": "[26]", "result": 94, "unit": "%"}, {"measurement": "residual activity", "setting": "[27]", "result": 81, "unit": "%"}, {"measurement": "residual activity", "setting": "[28]", "result": 95, "unit": "%"}, {"measurement": "residual activity", "setting": "[29]", "result": 81, "unit": "%"}]}]}
